Results taken from US7132409B2, “Adenosine derivatives and use thereof” (Toa Eiyo Ltd., priority 2000, dated 2006).
Values after ≈ are worked out from the molar mass of the structure shown. Where two headings read alike, the source gives them in different places.

Legend:
optic nerve failure = experiment: Model of retina failure induced through reperfusion after transient ischemia in rat; type: in vivo
[1] = Test Example 2: saturation solubility in isotonic borate buffer (HPLC); settings: for solubility at 6 h: isotonic borate buffer, 20 °C, pH 7, aqueous buffer, thermodynamic from solid
Procedure: (§1) Each of the test compounds was dispersed in an isotonic borate buffer (pH 7.0). The resultant mixture was shaken at 20° C. for 6 hours and then centrifuged. The concentration of the test compound in the supernatant was measured through HPLC for calculation of saturation solubility of the compound.
(§2) Detector: UV absorptiometer (wavelength: 270 nm)
(§3) Column: ODS column (inner diameter 4.6 mm, length 15 cm)
(§4) Mobile phase: An acetonitrile/triethylammonium acetate buffer (pH 7) mixture

[2] = tested on: ocular tension of Japanese white rabbits; experiment: Test Example 1: effect of lowering ocular tension after instillation in rabbit eyes; type: in vivo; settings: 0.1% solution, 50 μL instilled to one eye; for AUC (area under the curve of time versus change in difference in ocular tension, treated eye vs eye drop base eye): up to 480 min
Procedure: Each of the mentioned compounds was dissolved in saline containing polysorbate 80 (hereinafter the saline will be referred to as “eye drop base A”) or in a borate buffer (pH 7.0) containing polysorbate 80 (hereinafter the solution will be referred to as “eye drop base B”) (polysorbate 80 content of each base: 5 mg/mL).
Japanese white rabbits (male; Kitayama Labes Co., Ltd.) (weight: 2.7–3.9 kg) were employed in the test for measuring ocular tension. The rabbits were retained in a box-type fixation apparatus during the test.
The ocular tension of each rabbit was measured by use of a Model 30 Classic Pneumatonometer (product of Mentor) without anesthesia. Before the ocular tension was measured, 0.4% oxybuprocaine hydrochloride (Benoxil 0.4% eye drop solution, product of Santen Pharmaceutical Co., Ltd.) was instilled into the eyes of each rabbit, to thereby anesthetize the surface of the cornea. The ocular tension of each rabbit was measured several times at predetermined intervals. Three measurements of ocular tension, as measured when a constant value was reached, were averaged, and the average value was employed as representing the ocular tension.
A 0.1% solution of each test compound (50 μL) was instilled to one eye of each of the respective rabbits, and simultaneously the eye drop base (50 μL) was instilled to the other eye. The ocular tensions of both eyes were measured 60 minutes before instillation of the test compound; 0 minute immediately before instillation; and 30, 60, 90, 120, 150, 180, 240, 300, 360, 420, and 480 minutes after instillation. Four to six rabbits were employed for each test compound. For control, each eye drop base was instilled to both eyes of rabbits, and the ocular tension thereof was measured in a manner similar to that described above.
For each test compound, the effect of lowering ocular tension was evaluated on the basis of the following values: the area under the curve of time versus change in difference between the ocular tension of the eye to which the test compound was instilled and that of the eye to which the eye drop base was instilled (hereinafter the area will be abbreviated as AUC (mmHg•min)); and the maximum value of difference between the ocular tension of the eye to which the test compound was instilled and that of the eye to which the eye drop base was instilled (hereinafter the value will be abbreviated as Emax (mmHg)).

blood flow in the retina = experiment: Effects on blood vessel diameter and blood flow in the retina of rabbits; type: in vivo
[3] = pH 7
Procedure: as §1, §2, §3, §4

[4] = eye drop base B (borate buffer pH 7.0 with polysorbate 80)
[5] = eye drop base A (saline with polysorbate 80)

SMILES | solubility at 6 h [1] | Emax (maximum difference in ocular tension, treated eye vs eye drop base eye) [2, 4] | AUC (area under the curve of time versus change in difference in ocular tension, treated eye vs eye drop base eye) [2, 4] | Emax (maximum difference in ocular tension, treated eye vs eye drop base eye) [2, 5] | AUC (area under the curve of time versus change in difference in ocular tension, treated eye vs eye drop base eye) [2, 5] | other results
N#CCCCCC#Cc1nc(N)c2ncn([C@@H]3O[C@H](CO)[C@@H](O)[C@H]3O)c2n1 [Compound 1, 2-(6-cyano-1-hexyn-1-yl)adenosine] | 16600 µg/mL (≈ 44600 µM) | −4.3 mmHg | −1303.1 mmHg · min | – | – | effects of protecting optic nerve failure (optic nerve failure): particularly excellent effects of protecting optic nerve failure; melting point: 91 to 94 °C; effects of promoting vasodilatation and blood flow in the retina (blood flow in the retina): particularly excellent effects of promoting vasodilatation and blood flow in the retina
N#CCCCC#Cc1nc(N)c2ncn([C@@H]3O[C@H](CO)[C@@H](O)[C@H]3O)c2n1 [Referential Compound 1, 2-(5-cyano-1-pentyn-1-yl)adenosine] | – | −3.0 mmHg | −584.0 mmHg · min | – | – | –
N#CCCCCCC#Cc1nc(N)c2ncn([C@@H]3O[C@H](CO)[C@@H](O)[C@H]3O)c2n1 [Referential Compound 2, 2-(7-cyano-1-heptyn-1-yl)adenosine] | – | −2.6 mmHg | −844.5 mmHg · min | – | – | –
Nc1nc(C#CC2CCCC2)nc2c1ncn2[C@@H]1O[C@H](CO)[C@@H](O)[C@H]1O [Referential Compound 3, 2-cyclopentylethynyladenosine] | – | −4.4 mmHg | −1532.7 mmHg · min | – | – | Saturation solubility [3]: 1.4 mg/mL
CCCCC#Cc1nc(N)c2ncn([C@@H]3O[C@H](C(=O)NC)[C@@H](O)[C@H]3O)c2n1 [Referential Compound 6, 2-(1-hexyn-1-yl)adenosine-4′-methylcarboxamide] | – | – | – | −6.0 mmHg | −1838.3 mmHg · min | Saturation solubility ([1]; isotonic borate buffer pH 7.0, shaken at 20° C. for 6 hours): 0.5 mg/mL

More lines, main results first:

solubility at 6 h [1] | SMILES | Emax (maximum difference in ocular tension, treated eye vs eye drop base eye) [2, 4] | AUC (area under the curve of time versus change in difference in ocular tension, treated eye vs eye drop base eye) [2, 4] | Emax (maximum difference in ocular tension, treated eye vs eye drop base eye) [2, 5] | AUC (area under the curve of time versus change in difference in ocular tension, treated eye vs eye drop base eye) [2, 5] | other results
> 200000 µg/mL | N#CCCCCC#Cc1nc(N)c2ncn([C@@H]3O[C@H](COP(=O)([O-])[O-])[C@@H](O)[C@H]3O)c2n1.[Na+].[Na+] [Compound 2, disodium 2-(6-cyano-1-hexyn-1-yl)adenosine 5′-monophosphate] | −6.0 mmHg | −1965.0 mmHg · min | – | – | –
300 µg/mL (≈ 799 µM) | CCCCCCC#Cc1nc(N)c2ncn([C@@H]3O[C@H](CO)[C@@H](O)[C@H]3O)c2n1 [Referential Compound 4, 2-(1-octyn-1-yl)adenosine] | – | – | −4.2 mmHg | −1093.5 mmHg · min | –
700 µg/mL (≈ 1420 µM) | Nc1nc(C#CCCCCN2C(=O)c3ccccc3C2=O)nc2c1ncn2[C@@H]1O[C@H](CO)[C@@H](O)[C@H]1O [Referential Compound 5, 2-(6-phthalimidyl-1-hexyn-1-yl)adenosine] | – | – | −6.3 mmHg | −1471.0 mmHg · min | –
